Source: the supplement of paper PMC11208160

Assay: recombinant barcode read abundance after kanamycin selection (control-corrected) (log10(CPM+1)); higher = more efficient recombination; sequences stand for … in AGTGCAGAGAAAATCGGCCAGTTTTCTCTGCCTGCAGTCCGCATGCCGT…AGATTTATGCAGCGGACTGCCTTTCTCCCAAAGTGATAAACCGGACAGTATCATGGACCGGTTTTCCCGGTAATCCGTATTTGCAAGGTTGGTTTCACT; site = the 11-nt target
Outline: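 Recombination efficiency in this pooled E. coli screen uses counts per million of barcodes at recombinant junctions, averaged and corrected against the control. The reported form is log10(CPM+1). Two replicates were plated on chloramphenicol/ampicillin LB agar as control and two on chloramphenicol/ampicillin/kanamycin with 0.1 mM IPTG.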
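Note: IS621 recombinase and bridge RNA in Escherichia coli cells.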

Sequence: CCTCGGACTTGGGTTCTAACCTGTTGCAT (site CCTCGGACTAT)
- recombinant barcode read abundance (log10): 1.59

Sequence: CCTGATTCTTGGGTTCTAACCTGTTGCCT (site CCTGAATCTAG)
- recombinant barcode read abundance (log10): 0.0629

Sequence: CCTGATTCTTGGGTTCTAACCTGTTGCCT (site CCTGACTCTAG)
- recombinant barcode read abundance (log10): 0.113

Sequence: CCTGATTCTTGGGTTCTAACCTGTTGCCT (site CCTGAGTCTAG)
- recombinant barcode read abundance (log10): 0.107

Sequence: CCTGATTCTTGGGTTCTAACCTGTTGCCT (site CCTGATTCTAG)
- recombinant barcode read abundance (log10): 0.322

Sequence: CCTGGACCTTGGGTTCTAACCTGTTGCTT (site CCTGGACCTAA)
- recombinant barcode read abundance (log10): 1.87

Sequence: CCTGGACCTTGGGTTCTAACCTGTTGCTT (site CCTGGTCCTAT)
- recombinant barcode read abundance (log10): 0

Sequence: CCTGGCACTTGGGTTCTAACCTGTTGCGA (site CCTAGCACTTC)
- recombinant barcode read abundance (log10): 1.45

Sequence: CCTGGCACTTGGGTTCTAACCTGTTGCGA (site CCTCGCACTTC)
- recombinant barcode read abundance (log10): 0.0518

Sequence: CCTGGCACTTGGGTTCTAACCTGTTGCGA (site CCTGGCACTTC)
- recombinant barcode read abundance (log10): 2.37

Sequence: CCTGGCACTTGGGTTCTAACCTGTTGCGA (site CCTTGCACTTC)
- recombinant barcode read abundance (log10): 0.0559

Sequence: CCTGGGCCTTGGGTTCTAACCTGTTGCTT (site CCTGGACCTAC)
- recombinant barcode read abundance (log10): 0.471

Sequence: CCTGGGCCTTGGGTTCTAACCTGTTGCTT (site CCTGGGCCTAA)
- recombinant barcode read abundance (log10): 0.686

Sequence: CCTGGGGCTTGGGTTCTAACCTGTTGCCT (site CCTGGGGCTAG)
- recombinant barcode read abundance (log10): 0.233

Sequence: CCTGGGGCTTGGGTTCTAACCTGTTGCCT (site CCTGGTCCTAG)
- recombinant barcode read abundance (log10): 0.189

Sequence: CCTGTATCTTGGGTTCTAACCTGTTGCCT (site ACTGTATCTAG)
- recombinant barcode read abundance (log10): 0.0208

Sequence: CCTGTATCTTGGGTTCTAACCTGTTGCCT (site CCTGTATCTAG)
- recombinant barcode read abundance (log10): 0.127

Sequence: CCTGTATCTTGGGTTCTAACCTGTTGCCT (site GCTGTATCTAG)
- recombinant barcode read abundance (log10): 0.26

Sequence: CCTGTATCTTGGGTTCTAACCTGTTGCCT (site TCTGTATCTAG)
- recombinant barcode read abundance (log10): 0.039

Sequence: CCTTACACTTGGGTTCTAACCTGTTGCGG (site CCTGACACTCC)
- recombinant barcode read abundance (log10): 0.063

Sequence: CCTTACACTTGGGTTCTAACCTGTTGCGG (site CCTTACACTCC)
- recombinant barcode read abundance (log10): 2.53

Sequence: CCTTACCCTTGGGTTCTAACCTGTTGCCT (site CCTTACCCTAG)
- recombinant barcode read abundance (log10): 1.11

Sequence: CCTTACCCTTGGGTTCTAACCTGTTGCCT (site CCTTAGCCTAG)
- recombinant barcode read abundance (log10): 0.0606

Sequence: CCTTCTCCTTGGGTTCTAACCTGTTGCAT (site CCTTCTCCTAT)
- recombinant barcode read abundance (log10): 0.319

Sequence: CCTTCTCCTTGGGTTCTAACCTGTTGCAT (site GTACGATCTCC)
- recombinant barcode read abundance (log10): 0.146

Sequence: CCTTGCACTTGGGTTCTAACCTGTTGCGA (site CCTAGCACTTC)
- recombinant barcode read abundance (log10): 0.0223

Sequence: CCTTGCACTTGGGTTCTAACCTGTTGCGA (site CCTCGCACTTC)
- recombinant barcode read abundance (log10): 0.0306

Sequence: CCTTGCACTTGGGTTCTAACCTGTTGCGA (site CCTGGCACTTC)
- recombinant barcode read abundance (log10): 0.0155

Sequence: CCTTGCACTTGGGTTCTAACCTGTTGCGA (site CCTTGCACTTC)
- recombinant barcode read abundance (log10): 0.409

Sequence: CCTTGGGCTTGGGTTCTAACCTGTTGCTT (site CCTTGGGCTAA)
- recombinant barcode read abundance (log10): 0.011

Sequence: CCTTGGGCTTGGGTTCTAACCTGTTGCTT (site CTTTGGCCTAA)
- recombinant barcode read abundance (log10): 0.305

Sequence: CCTTGTACTTGGGTTCTAACCTGTTGCCT (site CCTTGTACTAG)
- recombinant barcode read abundance (log10): 0.035

Sequence: CCTTGTACTTGGGTTCTAACCTGTTGCCT (site CTTTGTACTAG)
- recombinant barcode read abundance (log10): 0.0491

Sequence: CCTTTACCTTGGGTTCTAACCTGTTGCCT (site ACTTTACCTAG)
- recombinant barcode read abundance (log10): 0.136

Sequence: CCTTTACCTTGGGTTCTAACCTGTTGCCT (site CCTTTACCTAG)
- recombinant barcode read abundance (log10): 0.337

Sequence: CCTTTACCTTGGGTTCTAACCTGTTGCCT (site GCTTTACCTAG)
- recombinant barcode read abundance (log10): 0.0546

Sequence: CCTTTACCTTGGGTTCTAACCTGTTGCCT (site TCTTTACCTAG)
- recombinant barcode read abundance (log10): 0.171

Sequence: CGAACATCTTGGGTTCTAACCTGTTGCTT (site ACCTACCCTCC)
- recombinant barcode read abundance (log10): 0

Sequence: CGAACATCTTGGGTTCTAACCTGTTGCTT (site CGAACATCTAA)
- recombinant barcode read abundance (log10): 0.144

Sequence: CGAACGACTTGGGTTCTAACCTGTTGCCT (site CGAACGACTAA)
- recombinant barcode read abundance (log10): 0.157

Sequence: CGAACGACTTGGGTTCTAACCTGTTGCCT (site CGAACGACTAG)
- recombinant barcode read abundance (log10): 0.259

Sequence: CGAACTACTTGGGTTCTAACCTGTTGCGT (site CGAACTACTAA)
- recombinant barcode read abundance (log10): 0.22

Sequence: CGAACTACTTGGGTTCTAACCTGTTGCGT (site CGAACTACTAC)
- recombinant barcode read abundance (log10): 0.143

Sequence: CGAACTACTTGGGTTCTAACCTGTTGCGT (site CGAACTACTAG)
- recombinant barcode read abundance (log10): 0.109

Sequence: CGAACTACTTGGGTTCTAACCTGTTGCGT (site CGAACTACTAT)
- recombinant barcode read abundance (log10): 0.0569

Sequence: CGAAGATCTTGGGTTCTAACCTGTTGCCT (site CAAAGATCTAG)
- recombinant barcode read abundance (log10): 0.142

Sequence: CGAAGATCTTGGGTTCTAACCTGTTGCCT (site CCAAGATCTAG)
- recombinant barcode read abundance (log10): 0

Sequence: CGAAGATCTTGGGTTCTAACCTGTTGCCT (site CGAAGATCTAG)
- recombinant barcode read abundance (log10): 0.273

Sequence: CGAAGATCTTGGGTTCTAACCTGTTGCCT (site CTAAGATCTAG)
- recombinant barcode read abundance (log10): 0.069

Sequence: CGACACTCTTGGGTTCTAACCTGTTGCCT (site CAACACTCTAG)
- recombinant barcode read abundance (log10): 0.107

Sequence: CGACACTCTTGGGTTCTAACCTGTTGCCT (site CCACACTCTAG)
- recombinant barcode read abundance (log10): 0.164

Sequence: CGACACTCTTGGGTTCTAACCTGTTGCCT (site CGACACTCTAG)
- recombinant barcode read abundance (log10): 0.251

Sequence: CGACACTCTTGGGTTCTAACCTGTTGCCT (site CTACACTCTAG)
- recombinant barcode read abundance (log10): 0.0214

Sequence: CGACAGTCTTGGGTTCTAACCTGTTGCCT (site CGACAGTCTAG)
- recombinant barcode read abundance (log10): 0.687

Sequence: CGACAGTCTTGGGTTCTAACCTGTTGCCT (site TAGATTCCTTT)
- recombinant barcode read abundance (log10): 0.201

Sequence: CGACATACTTGGGTTCTAACCTGTTGCGT (site CGACATACTAC)
- recombinant barcode read abundance (log10): 0.593

Sequence: CGACATACTTGGGTTCTAACCTGTTGCGT (site GGACATGCTAC)
- recombinant barcode read abundance (log10): 0.0511

Sequence: CGACCCTCTTGGGTTCTAACCTGTTGCTT (site ACACCCTCTAA)
- recombinant barcode read abundance (log10): 0.178

Sequence: CGACCCTCTTGGGTTCTAACCTGTTGCTT (site CGACCCTCTAA)
- recombinant barcode read abundance (log10): 1.39

Sequence: CGACCTACTTGGGTTCTAACCTGTTGCTA (site CGACCTACTTA)
- recombinant barcode read abundance (log10): 0.088

Sequence: CGACCTACTTGGGTTCTAACCTGTTGCTA (site GTACCTACTTA)
- recombinant barcode read abundance (log10): 0.17

Sequence: CGACCTGCTTGGGTTCTAACCTGTTGCCT (site CGACCTGCTAG)
- recombinant barcode read abundance (log10): 0.246

Sequence: CGACCTGCTTGGGTTCTAACCTGTTGCCT (site CGCCCTACTAG)
- recombinant barcode read abundance (log10): 0.249

Sequence: CGACGAACTTGGGTTCTAACCTGTTGCCT (site CGACGAACTAG)
- recombinant barcode read abundance (log10): 0.201

Sequence: CGACGAACTTGGGTTCTAACCTGTTGCCT (site GTCAATCCTCC)
- recombinant barcode read abundance (log10): 0.0212

Sequence: CGACGTCCTTGGGTTCTAACCTGTTGCGG (site CGACGTCCTCC)
- recombinant barcode read abundance (log10): 1.74
